Patent US20150148234A1, “HERBICIDE-RESISTANT SUNFLOWER PLANTS WITH MULTIPLE HERBICIDE RESISTANT ALLELES OF AHASL1 AND METHODS OF USE” (NIDERA S.A., priority 2013, published 2015)

What was measured:
[1] = test system: sunflower line BTI-OL-2201; assay: tolerance to imidazolinones, greenhouse (Example 8); settings: 160 gr/ha at V4, fourteen days after treatment
[2] = test system: sunflower hybrid H6 (L1 * WT), 205/wild type; assay: field trial, imazapyr at V8 or R1 stage (Example 4); settings: H6 205/wild type

SMILES: CC(C)C1(C)N=C(c2ncccc2C(=O)O)NC1=O (centres unmarked) [imazapyr]
- Mean Phytotoxicity Index (0-9) [1]: 0.2
- Mean Phytotoxicity Index (0-50) ([2]; 160 g ai/ha applied at R1, 14 DAT): 40
- Mean Phytotoxicity Index (0-50) ([2]; 160 g ai/ha applied at R1, 21 DAT): 48.3
- Mean Phytotoxicity Index (0-50) ([2]; 160 g ai/ha applied at V8, 14 DAT): 5
- Mean Phytotoxicity Index (0-50) ([2]; 160 g ai/ha applied at V8, 21 DAT): 5
